According to publication PMC9104013, “Role of Polyamine-Induced Dimerization of Antizyme in Its Cellular Functions” (International Journal of Molecular Sciences, 2022):
Where two headings read alike, the source gives them in different places.

Assays:
[1] = biological target: T1, recombinant mOAZ1 protein (Mus musculus, UniProt P54369); experiment: Electrophoresis of mOAZ1-Polyamine complex (0.01% SDS in running buffer); type: binding; settings: 200 μM polyamine, 30 min, 20 °C, pH 7.5
T1 construct: Full-length mOAZ1 protein was successfully produced in E. coli; made in house; host or cells: Escherichia coli Rosetta (DE3)
T1 sequence (P54369 whole entry): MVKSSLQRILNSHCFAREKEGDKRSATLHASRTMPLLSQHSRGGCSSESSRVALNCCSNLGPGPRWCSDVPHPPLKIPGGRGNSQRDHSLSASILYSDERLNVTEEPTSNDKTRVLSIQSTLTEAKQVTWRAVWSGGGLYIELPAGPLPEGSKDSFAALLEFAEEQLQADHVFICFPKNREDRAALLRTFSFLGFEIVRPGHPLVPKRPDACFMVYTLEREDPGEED
Method: The recombinant mOAZ1 protein (1 μg/band) was incubated with 200 μM of a polyamine at room temperature for 30 min. Then the sample was quenched with a loading buffer (200 mM Tris-HCl, pH 6.8, 0.01% bromophenol blue, and 40% glycerol) and applied onto 12% polyacrylamide gel lacking SDS. Electrophoresis was carried out in a running buffer with decreased SDS concentration (25 mM Tris base; 250 mM glycine; and 0.01% SDS) at 70 V. The gel was stained with Coomassie R-250.

[2] = biological target: T2, mouse OAZ1 (mOAZ1) (Mus musculus, UniProt P54369); experiment: Isothermal titration calorimetry of polyamines binding to mOAZ1; settings: for ΔH (enthalpy variation) / Ka (affinity constant): pH 7.5; for ΔH (enthalpy variation): SD did not exceed ±20%; for Ka (affinity constant): SD did not exceed ±25%; for TΔS (entropy variation): calculated from TΔS = ΔH + RTlnKa; for Binding to mOAZ1: under the conditions used
T2 construct: Full-length mOAZ1 protein was successfully produced in E. coli; made in house; host or cells: Escherichia coli Rosetta (DE3)
T2 sequence (P54369 whole entry): as above
Method: For the precise isothermal titration calorimetry (ITC) experiments only freshly purified samples turned out to be suitable. The thermodynamic parameters of polyamines binding to OAZ1 were measured using a MicroCal iTC200 instrument (GE Healthcare, Chicago, IL, USA) as described elsewhere. Experiments were carried out at 31 °C in buffer containing 25 mM potassium phosphate, pH 7.5; 150 mM KCl; 25% (v/v) glycerol; 1 mM 2-mercaptoethanol; and 1 mM PMSF. Aliquots (2.5 μL) of ligands were injected into a 0.2 mL cell containing the protein solution to achieve a complete binding isotherm. Protein and ligand concentrations were 20 μM and 200 μM, respectively. The heat of dilution was measured by injection of the ligand into the buffer solution or by additional injections of ligand after saturation; the values obtained were subtracted from the heat of reaction to obtain the effective heat of binding. The resulting titration curves were fitted using the MicroCal Origin software, assuming one set of binding sites. Affinity constants (Ka) and enthalpy variations (ΔH) were determined, and the entropy variations (ΔS) were calculated from the equation: TΔS = ΔH + RTlnKa.

[3] = tested on: spermidine/spermine-N^1-acetyltransferase (SSAT); parameters: method as in PMID 21639123; settings: cited from earlier work
[4] = tested on: +1 frameshifting of eukaryotic OAZ1 mRNA; experiment: Bicistronic β-galactosidase/firefly luciferase +1 frameshift reporter assay; type: cell-based, S. cerevisiae IS532/44d
From the text: For this purpose, the earlier developed frameshift reporter system, which includes quadruple S. cerevisiae mutant strain IS532/44d, unable to synthesize and degrade polyamines due to deletion of genes FMS1, SPE1, SPE2, and PAA1, and the plasmids pAC98T-OAZ1-FS and pAC98T-OAZ1-Cont were used. Each of these plasmids bears the reporter gene encoding β-galactosidase and firefly luciferase gene fused with the fragment of eukaryotic OAZ1 containing frameshift site. The plasmid pAC98T-OAZ1-FS contains native eukaryotic OAZ1 fragment, so the efficiency of luciferase synthesis and enzymatic activity depend on the +1 frameshift event. The plasmid pAC98T-OAZ1-Cont contains the eukaryotic OAZ1 fragment with […] replaced by TGG tryptophan codon that enables constitutive synthesis of both β-galactosidase and luciferase whose activity is taken as 100%. Bicistronic assays for frameshifting were performed as described earlier with the following modifications. Yeast transformants of IS532/44d strain were grown on agar plates with the synthetic media containing 0.67% (w/v) Yeast Nitrogen Base without amino acids (Sigma), 2% (w/v) glucose, 2% (w/v) agar, mixture of 19 amino acids without leucine (2 mg/mL each), and adenine (2 mg/mL) at 30 °C for 5–7 days. Then, colonies of yeast transformants were grown in the synthetic media lacking leucine and polyamines for two days. Yeast cultures were diluted to OD600 = 0.1 in 5 mL of synthetic media lacking leucine and supplemented with either Spd, 1-MeSpd, 2-MeSpd, or 3-MeSpd, each at final concentrations of 0.25, 0.5, 1, 2, and 4 mM. Yeast cultures were grown to log phase (OD600 = 0.8–1.4) at 30 °C and harvested by centrifugation, and cell pellets were washed three times with water. Cell pellets were resuspended in 500 μL of buffer containing 60 mM NaH2PO4, 40 mM Na2HPO4, 10 mM KCl, 1 mM MgSO4, 50 mM 2-mercaptoethanol, and 10% glycerol and lysed by vortexing with acid-washed glass beads (Sigma). The lysates were centrifuged (15,000× g, 10 min, 4 °C), and the supernatants were used for β-galactosidase and firefly luciferase reporter gene assays. β-Galactosidase activity was analyzed using ο-nitrophenyl-β-D-galactopyranoside (Sigma) as the substrate in accordance with published protocol. Activity of firefly luciferase was analyzed in 96-well plates using Luciferase Assay System (Promega). Frameshift frequencies were calculated as described.

[5] = tested on: DU145 cells; experiment: Intracellular polyamine and analogue concentrations in DU145 cells (HPLC); type: cell-based; settings: 4 h, 100 µM analogue, 1 mM AG
Method: The DU145 cell line was obtained from American Type Culture Collection, Manassas, VA, USA. OAZ1-overexpressing DU145 cells were generated as described earlier. The cells were cultured in humidified atmosphere at +37 °C, 10% CO2 in high-glucose Dulbecco’s Modified Eagle’s Medium supplemented with 10% heat-inactivated fetal bovine serum, 2 mM L-glutamine, and 50 μg/mL gentamycin. The cells were lysed in a buffer containing 50 mM potassium phosphate, pH 7.2, 0.1 mM EDTA, 0.1% Triton X-100, 1 mM dithiothreitol (DTT), and Complete EDTA-free protease inhibitor (Roche Diagnostics, Basel, Switzerland). Aliquots of the lysate were taken for polyamine measurement, and the rest was centrifuged at 13,000 rpm for 20 min at +4 °C. The supernatant was used for enzyme assays and Western blotting.
Polyamines were measured with HPLC according to the published method. Acid-precipitated pellets were dissolved to 0.1 M NaOH, and the amount of DNA was measured using the PicoGreen reagent (Invitrogen) according to manufacturer’s instructions using dilutions of calf thymus DNA (Sigma-Aldrich) as standard curve. Protein concentrations were measured using Bio-Rad protein kit with dilutions of bovine serum albumin (Bio-Rad, Hercules, CA, USA) as standards. ODC activities were measured from the cytosolic fractions as described earlier. For immunoblotting of OAZ1, 20–50 μg of total protein was separated on a 15% SDS-polyacrylamide gel, transferred to a membrane (Immobilon FL, Millipore, Burlington, MA, USA), and immunoblotted with rabbit anti-OAZ1 antibody (a kind gift from Prof. Olli Jänne, University of Helsinki, Finland) and rabbit antiactin (Santa Cruz Biotechnology, cat no sc-1616, used at 1:1000 dilution in 5% nonfat dry milk/PBS-Tween). The secondary antibody used was goat antirabbit (Santa Cruz Biotechnology, Dallas, TX, USA, cat no sc-2004, used at 1:10,000 dilution).

[6] = ITC, read-out: Kd of complex with mOAZ1
[7] = calculated as 1/Ka, no binding = not detected, Kd > 50 μM not detectable, read-out: Kd (dissociation constant)

## CC(N)CCNCCCCN (stereo not shown) [1-MeSpd]
[1]
  Formation of (mOAZ1)2-Polyamine complex / dimerization: dimeric and monomeric complexes
[2]; ITC, 31 °C
  ΔH (enthalpy variation): -2.2 kcal/mol
  Ka (affinity constant): 540000 M⁻¹
[2]; [6]
  Kd: ~1000 nM
[2]; [7]
  Kd: 1900 nM
[2]
  TΔS (entropy variation): 5.8 kcal/mol
[3]
  Substrate of SSAT: not a substrate of SSAT
[4]; 0.25 mM in medium
  Frameshifting activity: about the same as Spd
[4]; 2.0 mM and 4.0 mM in medium
  Frameshifting activity: weaker inducers of the frameshifting than Spd
[5]
  Intracellular Analogue: 170 ± 9.7 pmol/µg DNA
  Intracellular N1-AcSpd: 7.1 ± 0.2 pmol/µg DNA
  Intracellular Put: 9.5 ± 0.5 pmol/µg DNA
  Intracellular Spd: 62.0 ± 3.9 pmol/µg DNA
  Intracellular Spm: 74.0 ± 7.2 pmol/µg DNA
  Spd + MeSpd: 232 pmol/µg DNA
  Spd + Spm + MeSpd: 306 pmol/µg DNA
  Total polyamines: 323 pmol/µg DNA

## NCCCCNCCCN [Spd, spermidine]
[1]
  Formation of (mOAZ1)2-Polyamine complex / dimerization: induce dimerization of OAZ1
[2]; ITC, 31 °C
  ΔH (enthalpy variation): -3.3 kcal/mol
  Ka (affinity constant): 280000 M⁻¹
[2]; ITC
  Binding to mOAZ1: bound to mOAZ1
[2]; [6]
  Kd: ~1000 nM
[2]; [7]
  Kd: 3600 nM
[2]
  TΔS (entropy variation): 4.2 kcal/mol

## CC(CCN)NCCCCN (stereo not shown) [3-MeSpd]
[1]
  Formation of (mOAZ1)2-Polyamine complex / dimerization: dimeric and monomeric complexes
[2]; ITC, 31 °C
  ΔH (enthalpy variation): -1.2 kcal/mol
  Ka (affinity constant): 400000 M⁻¹
[2]; [6]
  Kd: ~1000 nM
[2]; [7]
  Kd: 2500 nM
[2]
  TΔS (entropy variation): 6.6 kcal/mol
[3]
  Substrate of SSAT: not a substrate of either SSAT or SpmSy
[4]; 2.0 mM and 4.0 mM in medium
  Frameshifting activity: weaker inducers of the frameshifting than Spd
[5]
  Intracellular N1-AcSpd: 5.9 ± 1.1 pmol/µg DNA
  Intracellular Put: 11.1 ± 0.2 pmol/µg DNA
  Intracellular Spd: 65.3 ± 3.9 pmol/µg DNA
  Intracellular Spm: 78.4 ± 5.8 pmol/µg DNA
  Spd + MeSpd: 168 pmol/µg DNA
  Total polyamines: 264 pmol/µg DNA

## CC(CN)CNCCCCN (stereo not shown) [2-MeSpd]
[1]
  Formation of (mOAZ1)2-Polyamine complex / dimerization: only the band corresponding to mOAZ1 itself was observed
[2]; ITC, 31 °C, pH 7.5, 150 mM KCl, 25% glycerol, protein 20 μM, ligand 200 μM
  Stoichiometry mOAZ1/Polyamine: No binding ^f
[2]; ITC, 31 °C
  ΔH (enthalpy variation): No binding ^f
  Ka (affinity constant): No binding ^f
[2]; ITC
  Binding to mOAZ1: not detected
[2]; calculated as 1/Ka, no binding = not detected, Kd > 50 μM not detectable
  Kd (dissociation constant): No binding ^f
[2]
  TΔS (entropy variation): No binding ^f
[3]
  Substrate of SSAT: substrate of both SSAT and SpmSy
[4]; all concentrations tested (0.25-4 mM)
  Frameshifting activity: substantially weaker inducer of +1 frameshift event than the other compounds
[5]
  Intracellular Analogue: 126 ± 14.5 pmol/µg DNA
  Intracellular N1-AcSpd: 4.9 ± 0.3 pmol/µg DNA
  Intracellular Put: 21.1 ± 0.7 pmol/µg DNA
  Intracellular Spd: 70.2 ± 2.3 pmol/µg DNA
  Intracellular Spm: 83.5 ± 6.8 pmol/µg DNA
  Spd + MeSpd: 196 pmol/µg DNA
  Spd + Spm + MeSpd: 279 pmol/µg DNA
  Total polyamines: 306 pmol/µg DNA
